Reference: ChEMBL document CHEMBL3217753, “Discovery of selective 2,4-diaminopyrimidine-based photoaffinity probes for glyoxalase I” (Medchemcomm, 2014)
Activity calls are given as the source filed them. The calls are words filed in the database; no cut-off is given here.

How the values were obtained:
HeLa [1] = experiment: Growth inhibition of human HeLa cells after 48 hrs by CellTiter-Glo assay in presence of 5 mM glucose; format: functional
A549 [2] = experiment: Growth inhibition of human A549 cells after 48 hrs by CellTiter-Glo assay in presence of 5 mM glucose; format: functional; conditions: A549, 48 h
NCI-H522 [3] = experiment: Growth inhibition of human NCI-H522 cells after 48 hrs by CellTiter-Glo assay in presence of 25 mM glucose; format: functional; conditions: NCI-H522, 48 h
HeLa [4] = experiment: Growth inhibition of human HeLa cells after 48 hrs by CellTiter-Glo assay in presence of 25 mM glucose; format: functional
HeLa [5] = experiment: Ratio of GI50 for human HeLa cells in presence of 5 mM glucose to GI50 for human HeLa cells in presence of 25 mM glucose; format: functional
A549 [6] = experiment: Growth inhibition of human A549 cells after 48 hrs by CellTiter-Glo assay in presence of 25 mM glucose; format: functional; conditions: A549, 48 h
NCI-H522 [7] = experiment: Growth inhibition of human NCI-H522 cells after 48 hrs by CellTiter-Glo assay in presence of 5 mM glucose; format: functional; conditions: NCI-H522, 48 h
Lactoylglutathione lyase [8] = target: T1, Lactoylglutathione lyase (Homo sapiens, UniProt Q04760); experiment: Inhibition of recombinant GLO-1 (unknown origin) assessed as S-D-lactoylglutathione formation preincubated for 1 hr followed by methylglyoxal and GSH addition measured after 9 mins by spectrophotometric analysis
Target sequence in this assay (Q04760 whole entry): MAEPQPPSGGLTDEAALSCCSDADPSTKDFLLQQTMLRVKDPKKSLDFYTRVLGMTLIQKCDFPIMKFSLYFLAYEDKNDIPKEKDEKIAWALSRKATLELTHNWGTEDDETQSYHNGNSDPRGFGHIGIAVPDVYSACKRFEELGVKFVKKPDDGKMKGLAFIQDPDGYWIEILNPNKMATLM

Lactoylglutathione lyase [9] = target: T1, Lactoylglutathione lyase; experiment: (§1) Competitive binding affinity to GLO-1 in HEK293T cell lysate at 50 uM after overnight incubation followed by UV-irradiation for 1 hr by Western blotting analysis in presence of N-(4-(4-(5-fluoro-4-(2-(methylsulfonamido)phenylamino)pyrimidin-2-ylamino)benzoyl)phenyl)-5-((3aS,4S,6aR)-2-oxohexahydro-1H-thieno[3,4-d]imidazol-4-yl)pentanamide; format: cell-based; conditions: HEK-293T
Target sequence in this assay (Q04760 2-184 limits assumed): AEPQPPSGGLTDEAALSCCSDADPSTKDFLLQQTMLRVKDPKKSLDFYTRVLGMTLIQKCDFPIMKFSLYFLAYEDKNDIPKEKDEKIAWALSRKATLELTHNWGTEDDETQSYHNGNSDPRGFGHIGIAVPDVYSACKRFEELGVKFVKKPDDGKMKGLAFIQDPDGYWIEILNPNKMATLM

Lactoylglutathione lyase [10] = target: T1, Lactoylglutathione lyase; experiment: Binding affinity to GLO-1 in live HEK293T cells by pull-down assay; format: cell-based; conditions: HEK-293T
Target sequence in this assay (Q04760 2-184 limits assumed): as above

Lactoylglutathione lyase [11] = target: T1, Lactoylglutathione lyase; experiment: Competitive binding affinity to human recombinant GLO-1 at 50 uM in presence of N-(4-(4-(5-fluoro-4-(2-(methylsulfonamido)phenylamino)pyrimidin-2-ylamino)benzoyl)phenyl)-5-((3aS,4S,6aR)-2-oxohexahydro-1H-thieno[3,4-d]imidazol-4-yl)pentanamide
Target sequence in this assay (Q04760 2-184 limits assumed): as above

Lactoylglutathione lyase [12] = target: T1, Lactoylglutathione lyase; experiment: as §1, with “pull-down assay” for “Western blotting analysis”; format: cell-based; conditions: HEK-293T
Target sequence in this assay (Q04760 2-184 limits assumed): as above

Lactoylglutathione lyase [13] = target: T1, Lactoylglutathione lyase; experiment: Competitive binding affinity to GLO-1 in human HeLa cells at 100 uM incubated for 6 hrs followed by UV-irradiation for 1 hr by fluorescence microscopic analysis in presence of N-(4-(4-(5-fluoro-4-(2-(methylsulfonamido)phenylamino)pyrimidin-2-ylamino)benzoyl)phenyl)hex-5-ynamide; format: cell-based
Target sequence in this assay (Q04760 2-184 limits assumed): as above

HeLa [14] = experiment: Induction of apoptosis in human HeLa cells under high glucose condition assessed as nuclear fragmentation at 5 uM after 24 hrs by DAPI staining-based fluorescence microscopic analysis; format: functional, cell-based
Lactoylglutathione lyase [15] = target: T1, Lactoylglutathione lyase; experiment: Competitive binding affinity to dimeric form of GLO-1 in HEK293T cells at 20 uM incubated for 6 hrs followed by UV-irradiation for 1 hr by fluorescence assay in presence of N-(4-(4-(5-fluoro-4-(2-(methylsulfonamido)phenylamino)pyrimidin-2-ylamino)benzoyl)phenyl)hex-5-ynamide; format: cell-based; conditions: HEK-293T
Target sequence in this assay (Q04760 2-184 limits assumed): as above

Lactoylglutathione lyase [16] = target: T1, Lactoylglutathione lyase; experiment: Competitive binding affinity to monomeric form of GLO-1 in HEK293T cells at 20 uM incubated for 6 hrs followed by UV-irradiation for 1 hr by fluorescence assay in presence of N-(4-(4-(5-fluoro-4-(2-(methylsulfonamido)phenylamino)pyrimidin-2-ylamino)benzoyl)phenyl)hex-5-ynamide; format: cell-based; conditions: HEK-293T
HeLa [17] = experiment: Induction of apoptosis in human HeLa cells under high glucose condition assessed as caspase-3 degradation at 1 to 50 uM after 24 hrs by Western blotting analysis; format: functional, cell-based
Lactoylglutathione lyase [18] = target: T1, Lactoylglutathione lyase; experiment: Competitive binding affinity to monomeric form of GLO-1 in HEK293T cell lysate at 20 uM after overnight incubation followed by UV-irradiation for 1 hr by fluorescence assay in presence of N-(4-(4-(5-fluoro-4-(2-(methylsulfonamido)phenylamino)pyrimidin-2-ylamino)benzoyl)phenyl)hex-5-ynamide; format: cell-based; conditions: HEK-293T
Lactoylglutathione lyase [19] = target: T1, Lactoylglutathione lyase; experiment: Inhibition of GLO-1 in human HeLa cells under high glucose condition assessed as increase in methylglyoxal level at 5 uM after 24 hrs by spectrophotometric analysis; format: cell-based
Lactoylglutathione lyase [20] = target: T1, Lactoylglutathione lyase; experiment: Competitive binding affinity to dimeric form of GLO-1 in HEK293T cell lysate at 20 uM after overnight incubation followed by UV-irradiation for 1 hr by fluorescence assay in presence of N-(4-(4-(5-fluoro-4-(2-(methylsulfonamido)phenylamino)pyrimidin-2-ylamino)benzoyl)phenyl)hex-5-ynamide; format: cell-based; conditions: HEK-293T

| SMILES | GI50 (HeLa [1]) [µM] | GI50 (A549 [2]) [µM] | GI50 (NCI-H522 [3]) [µM] | GI50 (HeLa [4]) [µM] | Ratio IC50 (HeLa [5]) | GI50 (A549 [6]) [µM] | GI50 (NCI-H522 [7]) [µM] | IC50 (Lactoylglutathione lyase [8]) [µM] | Activity (Lactoylglutathione lyase [9]) | Activity (Lactoylglutathione lyase [10]) | Activity (Lactoylglutathione lyase [11]) | Activity (Lactoylglutathione lyase [12]) | Activity (Lactoylglutathione lyase [13]) | Activity (HeLa [14]) | Activity (Lactoylglutathione lyase [15]) | Activity (Lactoylglutathione lyase [16]) | Activity (HeLa [17]) | Activity (Lactoylglutathione lyase [18]) | inhibition (Lactoylglutathione lyase [19]) | Activity (Lactoylglutathione lyase [20]) |
| --- | --- | --- | --- | --- | --- | --- | --- | --- | --- | --- | --- | --- | --- | --- | --- | --- | --- | --- | --- | --- |
| CS(=O)(=O)Nc1ccccc1Nc1nc(Nc2ccc(C(=O)OCc3ccccc3)cc2)ncc1F | 61.9 | > 50 | 16.5 | 37 | 2.6 | > 50 | 40.2 | 0.0513 | – | – | – | – | – | – | – | – | – | – | – | – |
| CS(=O)(=O)Nc1ccccc1Nc1nc(Nc2ccc(Oc3ccccc3)cc2)ncc1F | 14 | 37.4 | 7.3 | 7.3 | 2.6 | 26.9 | 8.3 | 0.0458 | – | – | – | – | – | – | – | – | – | – | – | – |
| CS(=O)(=O)Nc1ccccc1Nc1nc(Nc2ccc(C(=O)c3ccc(NC(=O)CCCC[C@@H]4SC[C@@H]5NC(=O)N[C@@H]54)cc3)cc2)ncc1F | – | – | – | – | – | – | – | – | Active | inactive | Active | Active | – | – | – | – | – | – | – | – |
| CS(=O)(=O)Nc1ccccc1Nc1nc(Nc2ccc(Cl)cc2)ncc1F | 61 | > 50 | 12.2 | 23.2 | 2.6 | > 50 | 25 | 0.0539 | – | – | – | – | – | – | – | – | – | – | – | – |
| C#CCCCC(=O)Nc1ccc(C(=O)c2ccc(Nc3ncc(F)c(Nc4ccccc4NS(C)(=O)=O)n3)cc2)cc1 | 5.7 | 15.5 | 2.9 | 4.6 | – | 13.3 | 2.7 | 0.0264 | – | – | – | – | Active | Active | Active | Active | Active | Active | Active | Active |
